Experimental data: patent US12085575B2, “Compositions and methods for detecting proteinopathies” (BOARD OF SUPERVISORS OF LOUISIANA STATE UNIVERSITY AND …, priority 2011, dated 2024)

What was measured:
Type in all cases: cell-based, human
Mfn2 [1] = test: Mfn2 modification and degradation in A-T/LV shRNA cells treated with mitochondrial depolarizing agents
Experimental: Immunoblotting Analysis of Mitochondrial Proteins—Mitochondria were isolated from A-T/LV control and ISG15 shRNA cells using the Miochondrial Isolation Kit (Thermo Scientific Company, 89874). The Dounce homogenization protocol described by the manufacturer was used to isolate mitochondria from cells. Mitochondrial pellets were resuspended in lysis buffer containing 50 mM Tris pH 7.5 and 4% (v/v) SDS. Samples were homogenized and boiled for 10 min. Lysates containing equal protein were then mixed with 6× Laemmli SDS sample buffer (3× final concentration). Samples were boiled again and mitochondrial proteins were analyzed by SDS-PAGE. Immunoblotting analyses using either anti-ISG15 (raised against human ISG15) (20), anti-ubiquitin (gift from Dr. Arthur Haas, at LSUHSC—New Orleans), or anti-mitofusin 2 (Abcam, ab88569) antibodies were carried out using the ECL Western procedure (Pierce, 34076) and the BioRad VersaDoc Imaging System (BioRad). Immunoblotting Analysis of HA Polyubiquitylated Proteins in Cells: Cells were transfected with HA-ubiquitin using the PolyFect transfection reagent (Qiagen, 301105). Twenty four hours after transfection, mitochondria were isolated as described above. Mitochondrial lysis, SDS-PAGE, and immunoblotting analysis to detect HA-ubiquitin conjugated proteins using anti-HA antibodies were carried out as described above. Immunoblotting Analysis of Mfn2 in Cells: Cells were lysed in lysis buffer containing 50 mM Tris-HCl, pH 7.5, 2% SDS, and protease inhibitor cocktail. Lysates were sonicated, boiled, and cleared by centrifugation. Lysates containing equal protein were then mixed with 6× Laemmli SDS sample buffer (3× final concentration). Samples were boiled again and proteins were separated by 15% SDS-PAGE. Immunoblotting analysis was carried out using anti-Mfn2 antibodies (Abcam) as described above. Intensity of the Mfn2 bands was quantitated using BioRad Quantity One software. Statistical analysis—Statistical analysis was carried out using GraphPad software.
Many outer mitochondrial membrane (OMM) proteins are ubiquitylated and degraded via the 26S proteasome prior to mitophagy in cells treated with the mitochondrial depolarizing agents (28,29). To test whether ISG15 inhibits polyubiquitylation of OMM proteins, we assessed the fate of Mfn2, an OMM protein and proteasome substrate, in A-T/LV-control and A-T/LV-ISG15-silenced cells treated with two different mitochondrial depolarizing agents, valinomycin and carbonylcyanide m-chlorophenylhydrazone (CCCP). Consistent with the literature reports (29,35,36), we observed a ladder of high molecular weight anti-Mfn2 cross-reactive bands above the 86 kDa Mfn2 protein band that is reminiscent of polyubiquitylation, in both ISG15-silenced and ISG15 overexpressing A-T cells (FIGS. 34 A and B, left panels). The endogenous level of these high molecular weight Mfn2 cross-reactive bands was remarkably higher in ISG15-silenced as compared to the ISG15-overexpressing A-T cells in the absence of any drugs (FIGS. 34A and B, first panels, compare lanes 1 and 4). […] In contrast, the level of these Mfn2 cross-reactive high molecular weight bands decreased under the same drug treatment conditions in ISG15-silenced A-T cells (FIGS. 34A and B, first panels, lanes 4-6, and the accompanying bar graph in the second panel for quantitation). […] The bar graphs in FIGS. 34A and B, third panels, show mean values of the ratio between free Mfn2 (86 kDa band) and actin proteins (±SEM) in CCCP-treated A-T/LV-control and ISG15 shRNA cells measured from eight independent experiments, and valinomycin-treated A-T/LV-control and ISG15 shRNA cells measured from three independent experiments respectively.

Mfn2 [2] = test: MFN2 modification and degradation in HEK293 cells treated with CCCP; conditions: HEK cells, CCCP 10 μM, 24 h
Source text: MFN2 is conjugated to SUMO-1/2/3 and ubiquitin, and is degraded in HEK293 cells treated with CCCP. We confirmed CCCP-induced MFN2-SUMO/ubiquitin modification and degradation in “normal” HEK293 cells. […] However, CCCP-mediated decrease in MFN2 was proteasome-dependent (FIG. 37D). Together, our results using A-T and HEK293 cells reveal that MFN2 is SUMOylated in response to CCCP treatment.

[3] = tested on: polyubiquitylated proteins; test: Camptothecin-induced degradation of polyubiquitylated proteins in A-T cells; conditions: CPT 10 μm, 24 hr
Experimental: To test the generality of this observation, the anticancer drug camptothecin (CPT), a genotoxic agent (37, 48-50), which is known to sensitize A-T cells (37), like UV, was used to induce degradation of polyubiquitylated proteins in A-T cells. In FIG. 8E, A-T cells were treated with camptothecin (CPT; 10 μm) in the presence or absence of Bafl (1 nm) for 24 hr. Ubiquitin conjugated proteins using anti-ubiquitin antibodies were detected as described herein for FIG. 8A. The experiment was repeated three times.

N#CC(C#N)=NNc1cccc(Cl)c1 [CCCP, carbonylcyanide m-chlorophenylhydrazone]
free MFN2 protein level (Mfn2 [1]; CCCP-treated ISG15 overexpressing A-T cells): remained unaffected
decrease in the free MFN2 level (Mfn2 [1]; ISG15-silenced A-T cells, CCCP 24 h, cell lysates and immunoprecipitates): 20%
free Mfn2 protein level (Mfn2 [1]; ISG15 overexpressing A-T cells, 24 hr): slightly increased
conjugation of SUMO-1, SUMO-2/3, and ubiquitin to MFN2 (Mfn2 [2]): induces conjugation
degradation of MFN2 (Mfn2 [2]): 20%

CC[C@@]1(O)C(=O)OCc2c1cc1n(c2=O)Cc2cc3ccccc3nc2-1 [CPT, camptothecin]
degradation of endogenous polyubiquitylated proteins [3]: induced degradation
